Measured values taken from BindingDB's records for doi:10.1016/s0960-894x(00)00323-1 (The University of Newcastle, 2000).

Target: Protein phosphatase 1 catalytic subunit (PP1)
Experiment: Inhibitory activity against recombinant Protein phosphatase 1

COC1OC(=O)[C@H]2[C@@H]1[C@@H]1CC[C@H]2O1 (stereo partly drawn) [(1R,2S,6R,7S)-5-Methoxy-4,10-dioxa-tricyclo[5.2.1.0*2,6*]decan-3-one]
IC50: > 1000 µM

CCOC(=O)C1C(C(=O)O)[C@@H]2CC[C@H]1O2 (stereo partly drawn) [(1R,4S)-7-Oxa-bicyclo[2.2.1]heptane-2,3-dicarboxylic acid monoethyl ester]
IC50: 2.96 µM
